Assay results: PubChem BioAssay AID1963873 (Molecular Pharmacology Branch, DTP, NCI, 2024)

Test system: 276233-004-R-J1-PDC KRAS spheroids with HUVEC/MSC, viability
Assay: Anticancer human tumor 276233-004-R-J1-PDC patient-derived colon adenocarcinoma cell line growth inhibition [KRAS2]
Conditions: for IC50: curve of first compound; for viability, T/C: stronger effect = lower value
Method in brief: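 KRAS-mutant tumor cells were grown as spheroids with HUVEC endothelial cells and human MSCs as stroma. Targeted agents were tested alone and with KRAS pathway inhibitors. Doses started at or near clinical Cmax, or 10 microM, descending half-log.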

[1] = second compound 0.1 µM, first compound 0.01 µM
[2] = second compound 0.1 µM, first compound 0.0316 µM
[3] = second compound 0.1 µM, first compound 0.1 µM
[4] = second compound 0.1 µM, first compound 0.316 µM
[5] = second compound 0.1 µM, first compound 1 µM
[6] = second compound 0.1 µM, first compound 3.16 µM
[7] = second compound 0.316 µM, first compound 0.01 µM
[8] = second compound 0.316 µM, first compound 0.0316 µM
[9] = second compound 0.316 µM, first compound 0.1 µM
[10] = second compound 0.316 µM, first compound 0.316 µM
[11] = second compound 0.316 µM, first compound 1 µM
[12] = second compound 0.316 µM, first compound 3.16 µM
[13] = second compound 1 µM, first compound 0.01 µM
[14] = second compound 1 µM, first compound 0.0316 µM
[15] = second compound 1 µM, first compound 0.1 µM
[16] = second compound 1 µM, first compound 0.316 µM
[17] = second compound 1 µM, first compound 1 µM
[18] = second compound 1 µM, first compound 3.16 µM
[19] = second compound 3.16 µM, first compound 0.01 µM
[20] = second compound 3.16 µM, first compound 0.0316 µM
[21] = second compound 3.16 µM, first compound 0.1 µM
[22] = second compound 3.16 µM, first compound 0.316 µM
[23] = second compound 3.16 µM, first compound 1 µM
[24] = second compound 3.16 µM, first compound 3.16 µM
[25] = second compound 10 µM, first compound 0.01 µM
[26] = second compound 10 µM, first compound 0.0316 µM
[27] = second compound 10 µM, first compound 0.1 µM
[28] = second compound 10 µM, first compound 0.316 µM
[29] = second compound 10 µM, first compound 1 µM
[30] = second compound 10 µM, first compound 3.16 µM
[31] = second compound 0.1 µM, first compound 0.000316 µM
[32] = second compound 0.1 µM, first compound 0.001 µM
[33] = second compound 0.1 µM, first compound 0.00316 µM
[34] = second compound 0.316 µM, first compound 0.000316 µM
[35] = second compound 0.316 µM, first compound 0.001 µM
[36] = second compound 0.316 µM, first compound 0.00316 µM
[37] = second compound 1 µM, first compound 0.000316 µM
[38] = second compound 1 µM, first compound 0.001 µM
[39] = second compound 1 µM, first compound 0.00316 µM
[40] = second compound 3.16 µM, first compound 0.000316 µM
[41] = second compound 3.16 µM, first compound 0.001 µM
[42] = second compound 3.16 µM, first compound 0.00316 µM
[43] = second compound 10 µM, first compound 0.000316 µM
[44] = second compound 10 µM, first compound 0.001 µM
[45] = second compound 10 µM, first compound 0.00316 µM
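Also: cells exposed to agents for seven days before viability read.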
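For viability, T/C in this document: 100% = DMSO vehicle control wells and lower values mean fewer viable cells.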

Compound | IC50 (second compound 0.1 µM) [nM] | IC50 (second compound 0.316 µM) [nM] | IC50 (second compound 1 µM) [nM] | IC50 (second compound 3.16 µM) [nM] | IC50 (second compound 10 µM) [nM] | viability, T/C [1] [%] | viability, T/C [2] [%] | viability, T/C [3] [%] | viability, T/C [7] [%] | viability, T/C [8] [%] | viability, T/C [9] [%] | viability, T/C [13] [%] | viability, T/C [14] [%] | viability, T/C [15] [%] | viability, T/C [19] [%] | viability, T/C [20] [%] | viability, T/C [21] [%] | viability, T/C [25] [%] | viability, T/C [26] [%] | viability, T/C [27] [%] | further results
CC(=O)OC12COC1CC(O)C1(C)C(=O)C(O)C3=C(C)C(OC(=O)C(O)C(NC(=O)OC(C)(C)C)c4ccccc4)CC(O)(C(OC(=O)c4ccccc4)C21)C3(C)C (stereo not given) + C=CC(=O)N1CCN(c2nc(=O)n(-c3c(C)ccnc3C(C)C)c3nc(-c4c(O)cccc4F)c(F)cc23)C(C)C1 | > 3160 | > 3160 | > 3160 | > 3160 | > 3160 | 87 | 96.5 | 80.4 | 100 | 109 | 79.4 | 90.7 | 85.3 | 71.6 | 95.5 | 84.9 | 77.8 | 79.2 | 72.2 | 97.6 | viability, T/C [4]: 77.4%; viability, T/C [5]: 86.3%; viability, T/C [6]: 97.8%; viability, T/C [10]: 70.5%; viability, T/C [11]: 90.1%; viability, T/C [12]: 89.5%; viability, T/C [16]: 75%; viability, T/C [17]: 88%; viability, T/C [18]: 99.2%; viability, T/C [22]: 92.8%; viability, T/C [23]: 79.5%; viability, T/C [24]: 90.2%; viability, T/C [28]: 64.2%; viability, T/C [29]: 103%; viability, T/C [30]: 129%
COc1cc2nccc(Oc3ccc(NC(=O)C4(C(=O)Nc5ccc(F)cc5)CC4)cc3)c2cc1OC + CNCc1ccccc1-c1csc(C(C)Nc2nc(C)nc3cc(OC)c(OC)cc23)c1 | > 10000 | > 10000 | 595 | < 31.6 | < 31.6 |  | 82.3 | 109 |  | 83.3 | 85 |  | 74.8 | 58.8 |  | 0.61 | 2.67 |  | 0.64 | 0.19 | viability, T/C [4]: 82.8%; viability, T/C [5]: 88.3%; viability, T/C [6]: 80.9%; viability, T/C (second compound 0.1 µM, first compound 10 µM): 88.2%; viability, T/C [10]: 85.8%; viability, T/C [11]: 109%; viability, T/C [12]: 83.2%; viability, T/C (second compound 0.316 µM, first compound 10 µM): 67.2%; viability, T/C [16]: 68.7%; viability, T/C [17]: 35.6%; viability, T/C [18]: 15%; viability, T/C (second compound 1 µM, first compound 10 µM): 41.5%; viability, T/C [22]: 0.63%; viability, T/C [23]: 0.45%; viability, T/C [24]: 0.77%; viability, T/C (second compound 3.16 µM, first compound 10 µM): 0.33%; viability, T/C [28]: 0.57%; viability, T/C [29]: 0.15%; viability, T/C [30]: 0.14%; viability, T/C (second compound 10 µM, first compound 10 µM): 1.46%
Cn1ncnc1[C@H]1c2n[nH]c(=O)c3cc(F)cc(c23)N[C@@H]1c1ccc(F)cc1 + CC1OCC2(CCN(c3cnc(Sc4ccnc(N)c4Cl)c(N)n3)CC2)C1N | > 100 | > 100 | > 100 | > 100 | > 100 | 99 | 94.3 | 85.1 | 88.3 | 74.9 | 89.6 | 82.6 | 69.4 | 65.6 | 52.8 | 59.5 | 62.9 | 64.5 | 54.2 | 54 | viability, T/C [31]: 95.8%; viability, T/C [32]: 99.4%; viability, T/C [33]: 102%; viability, T/C [34]: 92.5%; viability, T/C [35]: 83.5%; viability, T/C [36]: 98.1%; viability, T/C [37]: 88.9%; viability, T/C [38]: 95.2%; viability, T/C [39]: 104%; viability, T/C [40]: 83.8%; viability, T/C [41]: 70.1%; viability, T/C [42]: 68.8%; viability, T/C [43]: 68.8%; viability, T/C [44]: 66.4%; viability, T/C [45]: 64.9%
CN(C)C/C=C/C(=O)Nc1cc2c(Nc3ccc(F)c(Cl)c3)ncnc2cc1O[C@H]1CCOC1 + COc1cc2nc(C)nc(NC(C)c3cc(N)cc(C(F)(F)F)c3)c2cc1OC1CCOC1 | > 100 | > 100 | > 100 | > 100 | > 100 | 86.9 | 79.8 | 80.2 | 61.1 | 68.5 | 74 | 83.8 | 71.4 | 67.5 | 63 | 56 | 66.3 | 65.5 | 63.6 | 63.4 | viability, T/C [31]: 99.4%; viability, T/C [32]: 95.6%; viability, T/C [33]: 77.4%; viability, T/C [34]: 80%; viability, T/C [35]: 82.9%; viability, T/C [36]: 71.7%; viability, T/C [37]: 86.1%; viability, T/C [38]: 107%; viability, T/C [39]: 87.9%; viability, T/C [40]: 64.4%; viability, T/C [41]: 66.9%; viability, T/C [42]: 74.7%; viability, T/C [43]: 65%; viability, T/C [44]: 69%; viability, T/C [45]: 67.4%
